{
  "source": "patent US5340920A",
  "about": "“Physiologically active porcine peptide (CNP-53)” (Matsuo; Hisayuki, priority 1990, dated 1994)",
  "key": {"[1]": {"test_system": "anti-CNP-22 antiserum (antibody #171-4)", "assay": "RIA system using anti-CNP-22 antiserum #171-4 and I125 labelled [Tyr0] CNP-22", "format": "binding, rabbit", "conditions": "for cross-reactivity of antibody #171-4: RIA, CNP-22 as standard", "experimental": "Six milligrams of chemically synthesized CNP-22 and 15 mg of bovine thyroglobulin (product of Sigma Co.) were dissolved in 2 ml of 0.1M phosphate buffer (pH 7.4). To the solution, 100 μl of 5% glutaraldehyde was added and the mixture was agitated at 0° C. for 20 min to have CNP-22 bound to the thyroglobulin. Then, the solution was dialyzed five times against water (500 ml) and twice against 500 ml of 50 mM phosphate buffer (pH 7.4) containing 80 mM NaCl, whereby excess salts and reagents were removed from the reaction solution. Subsequently, 50 mM phosphate buffer containing 80 mM NaCl was added to the reaction solution to make a total volume of 12 ml. Thereafter, an equal volume of Freund's complete adjuvant was added to form an emulsion. A rabbit (New Zealand White) was repeatedly immunized with the emulsion at 20-day intervals so as to prepare an anti-CNP-22 antiserum. The thus prepared antiserum was named \"#171-4\".\nIn the first step, [Tyr°] CNP-22 [a peptide having a tyrosine residue (Tyr) added to the N-terminus of CNP-22] was chemically synthesized. Then, I^125 was introduced into the N-terminal Tyr residue by the method of Miyata et al. (Miyata, A. et al., Biochem. Biophys. Res. Commun., 129, 248-255, 1985) and the I^125 labelled monoiodo(Tyr°] CNP-22 was separated and isolated by reverse-phase HPLC.\nIn the next step, an RIA system was constructed by the following method using the thus I125 labelled [Tyr°] CNP-22 and the antibody (#171-4) prepared in Example 1-A.\nAs a buffer for the RIA system, 50 mM phosphate buffer (pH 7.4) containing 80 mM NaCl, 0.1% Triton X-100, 25 mM EDTA, 0.05% NaN3, 3.1% dextran T-40 and 0.25% BSA (as treated with N-ethylmaleimide) was used. A standard CNP-22 solution or assay sample (100 μl) and the antibody #171-4 prepared in Example 1-A (100 μl of a 60,000-fold dilution) were added to the buffer and the mixture was subjected to reaction at 4° C. for 24 h. […] Thereafter, polyethylene glycol was added and the radioactivity of the resulting precipitate was measured with a gamma-counter (ARC-600 of Aloka Co.)."}, "[2]": {"test_system": "rats", "conditions": "administered to rats; Japanese Patent Application No. 105047/1990; cited from earlier work"}, "[3]": {"assay": "Diuretic and natriuretic actions of the purified peptide", "format": "in vivo", "conditions": "no method described"}, "[4]": {"test_system": "chick rectum", "assay": "Chick rectum relaxant activity (method of Currie et al.)", "conditions": "assay system of Currie et al.; compared with CNP-22", "experimental": "The chick rectum relaxant activity of CNP-53 was measured in accordance with the method of Currie et al. (Currie et al., […])."}},
  "data": [
    {"molecule": "α-ANP: α-type atrial natriuretic peptide, single-stranded peptide of 28 amino acids with a single S-S bond [reference compound]", "values": [
      {"measurement": "cross-reactivity of antibody #171-4", "setting": "[1]", "value": 0.015, "unit": "%"}
    ]},
    {"molecule": "CNP-22: C-type natriuretic peptide of 22 amino acid residues from porcine brain, single S-S bond, no C-terminal tail (GLSKGCFGLKLDRIGSMSGLGC)", "values": [
      {"measurement": "natriuretic and hypotensive actions", "setting": "[2]", "value": "natriuretic and hypotensive actions"}
    ]},
    {"molecule": "CNP-53: novel porcine brain peptide of 53 amino acid residues containing CNP-22 at the C-terminus, intramolecular S-S bond Cys37-Cys53 (DLRVDTKSRAAWARLLHEHPNARKYKGGNKKGLSKGCFGLKLDRIGSMSGLGC)", "values": [
      {"measurement": "diuretic and natriuretic actions", "setting": "[3]", "value": "diuretic and natriuretic actions"},
      {"measurement": "immunoreactivity per molecule with the anti-CNP-22 antiserum", "setting": "[1]; RIA of Example 1, assuming 53 residues containing CNP-22 at the C-terminus, compared with CNP-22", "value": "comparable to that of CNP-22"},
      {"measurement": "chick rectum relaxant activity", "setting": "[4]", "value": "comparable chick rectum relaxant activity to CNP-22"}
    ]},
    {"molecule": "pBNP-26: porcine brain natriuretic peptide of 26 amino acid residues having a single S-S bond (peptide) peptide: HPLGGAGLASELPGIQELLDRLRDRVSELQAERTDLEPLRQDRGLTEAWEAREAAPTGVLGPRSSIFQVLRGIRSPKTMRDSGCFGRRLDRIGSLSGLGCNVLRRY", "values": [
      {"measurement": "cross-reactivity of antibody #171-4", "setting": "[1]", "value": 0.46, "unit": "%"}
    ]}
  ]
}
